Reference: US20210308188A1, “CELL CLUSTER INCLUDING OLFACTORY NEURON OR PRECURSOR CELL THEREOF, AND METHOD FOR PRODUCING SAME” (SUMITOMO CHEMICAL COMPANY, LIMITED, priority 2018, published 2021)

Legend:
Assay type in all cases: cell-based
[1] = tested on: human iPS cells; test: Cell cluster production with EGF and second Wnt signaling pathway inhibitory substance (Experiment 6); settings: EGF 20 ng/ml added on day 13 and XAV939 300 nM on day 17 (both added); day 28
Description: In Experiment 6, as shown in the upper section of FIG. 17, a cell cluster including an olfactory receptor neuron or a precursor cell thereof was produced by performing step (3c) as step (3) from the beginning, adding EGF from the middle of step (3c), and then culturing in the presence of XAV939 as a second Wnt signaling pathway inhibitory substance. The same manipulations as in Experiment 3 were performed except for those specifically indicated.
Specifically, steps (a), (1) and (2) were started with maintenance-cultured human iPS cells, and then, on day 3 after the start of suspension culturing, the medium was half exchanged with a serum-free medium being free of Y27632 and BMP4 and containing IWP-2, SB-431542, FGF2, Heparin Sodium and K02288 (start of step (3c)). FGF2, Heparin Sodium, and K02288 were included to be final concentrations in the well of 20 ng/ml, 10 μg/ml, and 1 μM, respectively. Thereafter, on days 6 and 10 after the start of suspension culturing, the medium was half exchanged with a serum-free medium being free of Y27632 and BMP4 and containing IWP-2, SB-431542, FGF2, Heparin Sodium and K02288. In addition, on day 13 after the start of suspension culturing, in addition to the above factors, EGF (manufactured by PrimeGene Co., Ltd.) was added to be a final concentration of 20 ng/ml. […]

[2] = tested on: human iPS cell line HC-6 #10; test: Combination use of Wnt signaling pathway-activating substance and inhibitory substance in cell cluster production (Experiment 14)
Description: Cell clusters were produced in accordance with the procedures shown in the upper section of FIG. 28 by using Wnt signaling pathway-activating substance and inhibitory substance in combination. Human iPS cells (HC-6 #10 cell line, obtained from the Institute of Physical and Chemical Research) were subjected to maintenance culturing and step (a) in the same manner as in Experiment 1. The suspension culturing was started on a 96-well culture plate in the same manner as in Experiment 1, except that the number of cells per well was 9×10^3 cells. At the start of suspension culturing (day 0 after the start of suspension culturing, start of step (1)), Y27632 (final concentration 20 μM), IWP-2 (final concentration 2 μM), and SB-431542 (final concentration 1 μM) were added to the serum-free medium. In addition, CHIR99021 (manufactured by Cayman Chemical, Inc.) was added as a Wnt signaling pathway-activating substance such that the final concentration was 300 nM. When the Wnt signaling pathway inhibitory substance IWP-2 and the Wnt signaling pathway-activating substance CHIR99021 are used in combination, β-catenin-dependent Wnt Canonical Pathway is activated and β-catenin-independent Wnt-non-Canonical Pathway is inhibited. On day 2 after the start of suspension culturing, a serum-free medium being free of Y27632 and containing SB-431542, BMP4, IWP-2 and CHIR99021 was added at 100 μl per well (start of step (2)). BMP4 was added to the medium at 3 nM to be a final concentration in the well of 1.5 nM. On day 3 after the start of suspension culturing, the medium was half exchanged with a serum-free medium being free of Y27632 and BMP4 and containing IWP-2, SB-431542, FGF2 and CHIR99021 (start of step (3a)). Thereafter, on days 6 and 10 after the start of suspension culturing, the medium was half exchanged with a serum-free medium being free of Y27632 and BMP4 and containing IWP-2, SB-431542, FGF2, CHIR99021, and K02288 (start of step (3c)). […]

[3] = tested on: human iPS cells; test: Study for first Wnt signaling pathway inhibitory substance in cell cluster production (Experiment 9); settings: added from start of suspension culturing (IWP-2, IWP-3, IWP-4 2 μM; Wnt C-59 20 nM; KY02111 1 μM); BMP4 on day 2; day 28
Description: In Experiment 9, a study of cell cluster production efficiency was performed for the type of the first Wnt signaling pathway inhibitory substance, using human iPS cells. The experiments were performed in accordance with the procedures shown in the upper section of FIG. 22, and the same manipulations as in Experiment 3 were performed except for those specifically indicated. The suspension culturing of the human iPS cells subjected to maintenance culturing and step (a) was started in a medium supplemented with a first Wnt signaling pathway inhibitory substance, Y27632 (final concentration 20 μM) and SB-431542 (final concentration 1 μM).
As the first Wnt signaling pathway inhibitory substance, IWP-2 (manufactured by Tocris Biosciences, final concentration 2 μM), IWP-3 (manufactured by Cayman Chemicals, final concentration 2 μM), IWP-4 (manufactured by Cayman Chemicals, final concentration 2 μM), Wnt C-59 (manufactured by Cayman Chemicals, final concentration 20 nM), or KY02111 (manufactured by Cayman Chemicals, final concentration 1 μM) was used. As a control in which the first Wnt signaling pathway inhibitory substance was not added, DMSO was added.
On day 2 after the start of suspension culturing, a serum-free medium being free of Y27632 and containing each first Wnt signaling pathway inhibitory substance, SB-431542 and BMP4 (final concentration 1.5 nM) was added at 100 μl per well. In addition, on day 3 after the start of suspension culturing, the medium was half exchanged with a serum-free medium being free of Y27632 and BMP4 and containing SB-431542, K02288, FGF2, Heparin Sodium, and EGF. K02288, FGF2, Heparin Sodium, EGF were included to final concentrations in the well were 10 μM, 20 ng/ml, 10 μg/ml and 20 ng/ml, respectively. On days 6, 10, 13, 17, 21, and 24 after the start of suspension culturing, the medium was half exchanged with a serum-free medium being free of Y27632 and BMP4 and containing each first Wnt signaling pathway inhibitory substance, SB-431542, K02288, FGF2, Heparin Sodium, and EGF.
On day 28 after the start of suspension culturing, bright-field observation was performed with an inverted microscope (FIGS. 22A to 22F).
The cell clusters on day 28 after the start of suspension culturing were subjected to immunofluorescence staining in accordance with the same method as in Comparative Experiment 1. As primary antibodies, an anti-Six1 antibody and an anti-pan-cytokeratin antibody staining placode and non-neural epithelial tissues, and an anti-Sox2 antibody staining placode and neural cells, described in Table 1, were used. As fluorescently labeled secondary antibodies, an Alexa488-labeled donkey anti-rabbit antibody, a CF555-labeled donkey anti-goat antibody, and an Alexa647-labeled donkey anti-mouse antibody, described in Table 2, were used to perform multiple staining. Hoechst 33342 was used for contrast staining of the nucleus. The positive and negative determinations of the staining results were performed in the same manner as in Preliminary Experiment 1.
Under the conditions in which the first Wnt signaling pathway inhibitory substance was not added, no non-neural epithelial tissue was formed on the surface of the cell aggregate even when BMP4 was added on day 2 after the start of suspension culturing.

[4] = CHIR99021 300 nM added together with IWP-2 2 μM, day 21

Row | Molecule | formation of aggregates having non-neural epithelial tissues on the surface [3] | other results
1 | O=c1[nH]c(-c2ccc(C(F)(F)F)cc2)nc2c1CSCC2 [3,5,7,8-Tetrahydro-2-[4-(trifluoromethyl)phenyl]-4H-thiopyrano[4,3-d]pyrimidin-4-one] | – | stability of non-neural epithelial tissue part including olfactory receptor neuron or precursor cell versus conditions without addition [1]: more stable
2 | Cc1c[nH]c(-c2cnc(NCCNc3ccc(C#N)cn3)nc2-c2ccc(Cl)cc2Cl)n1 [CHIR99021] | – | formation of olfactory epithelial-like tissue on the external of the cell cluster [2, 4]: formed an olfactory epithelial-like tissue on the external of the cell cluster; number of dead cells in neural tissues inside of the cell clusters [2, 4]: reduced; extent of CHIR99021 at which Wnt-Canonical Pathway activity promotes survival of nervous tissues inside of the cell cluster and epithelial formation ([2]; combination with IWP-2): ≤ 3 µM
3 | Cc1ccc2nc(NC(=O)CSc3nc4c(c(=O)n3-c3ccccc3)SCC4)sc2c1 [IWP-2, N-(6-Methyl-2-benzothiazolyl)-2-[(3,4,6,7-tetrahydro-4-oxo-3-phenylthieno[3,2-d]pyrimidin-2-yl)thio]-acetamide] | aggregates having non-neural epithelial tissues on the surface were formed | –
4 | Cc1ccc2nc(NC(=O)CSc3nc4c(c(=O)n3-c3ccc(F)cc3)SCC4)sc2c1 [IWP-3, 2-[[3-(4-fluorophenyl)-3,4,6,7-tetrahydro-4-oxothieno[3,2-d]pyrimidin-2-yl]thio]-N-(6-methyl-2-benzothiazolyl)-acetamide] | aggregates having non-neural epithelial tissues on the surface were formed | –
5 | COc1ccccc1-n1c(SCC(=O)Nc2nc3ccc(C)cc3s2)nc2c(c1=O)SCC2 [IWP-4, N-(6-methyl-2-benzothiazolyl)-2-[[3,4,6,7-tetrahydro-3-(2-methoxyphenyl)-4-oxothieno[3,2-d]pyrimidin-2-yl]thio]-acetamide] | aggregates having non-neural epithelial tissues on the surface were formed | –
6 | COc1ccc(CCC(=O)Nc2nc3ccc(Cl)cc3s2)cc1OC [KY02111, N-(6-Chloro-2-benzothiazolyl)-3,4-dimethoxybenzenepropanamide] | aggregates having non-neural epithelial tissues on the surface were formed | –
7 | Cc1cc(-c2ccc(CC(=O)Nc3ccc(-c4cccnc4)cc3)cc2)ccn1 [Wnt C-59, 2-[4-(2-Methylpyridin-4-yl)phenyl]-N-[4-(pyridin-3-yl)phenyl]acetamide] | aggregates having non-neural epithelial tissues on the surface were formed | –
8 | EGF: EGF signaling pathway-activating substance, manufactured by PrimeGene (NSDSECPLSHDGYCLHDGVCMYIEALDKYACNCVVGYIGERCQYRDLKWWELR; Epidermal growth factor; UniProt P01133 971-1023, looked up) | – | stability of non-neural epithelial tissue part including olfactory receptor neuron or precursor cell versus conditions without addition [1]: more stable
